Results: patent publication US8067458B2, “Alkoxyalkyl-substituted cyclic ketoenols” (Bayer Cropscience AG, priority 2006, dated 2011)
Where “and” joins values, the source holds several entries; their conditions need not be identical. Identical values can stand only once. Like-named read-outs stand apart in the source and are kept apart here.

How the values were obtained:
[1] = Determination of the log P values by HPLC on a reversed phase column (C18); assay type: physicochemical; details: 43° C., EEC Directive 79/831 Annex V.A8
Method: The log P values reported in the table were determined in accordance with EEC Directive 79/831 Annex V.A8 by means of HPLC (high performance liquid chromatography) on a reversed phase column (C18). Temperature: 43° C. […] Calibration was carried out with unbranched alkan-2-ones (having 3 to 16 carbon atoms) whose log P values are known (log P values determined on the basis of the retention times by means of linear interpolation between two successive alkanones).

[2] = test system: caterpillars of the army worm (Spodoptera frugiperda); assay: Spodoptera frugiperda test (spray treatment); assay type: in vivo; details: 500 g/ha, maize leaf discs
Method: Solvent: 78 parts by weight of acetone • • 1.5 parts by weight of dimethylformamide Emulsifier: 0.5 part by weight of alkylaryl polyglycol ether A suitable preparation of active compound is prepared by mixing 1 part by weight of active compound with the stated amounts of solvent and emulsifier and diluting the concentrate with emulsifier-containing water to the desired concentration. Leaf discs of maize (Zea mays) are sprayed with a preparation of active compound at the desired concentration and after they have dried are populated with caterpillars of the army worm (Spodoptera frugiperda).

[3] = Penetration of active compounds through enzymatically isolated cuticles of apple leaves; details: spray liquor on isolated cuticles; 20° C., 60% rh; average of 5 to 6 measurements
Spring wheat = assay type: in vivo; details: post-emergence
Spring barley = assay type: in vivo; details: post-emergence
Maize - Arsenal = assay: Greenhouse container trials with maize, safener 1 day prior to herbicide application, pre-emergence; assay type: in vivo; details: 28 days after application
Method: (§1) Seeds of monocotyledonous and dicotyledonous weed plants and crop plants are placed in sandy loam soil in wood fibre pots or in plastic pots and are covered with earth. The pots are easily fitted and then the soil surface is treated with the test compounds, formulated as wettable powders (WP) or liquids (EC) in various dosages, with a water application rate of 300 l/ha (converted). […] If the testing is also to look at whether safeners can improve the tolerance of the crop plants for test substances, the following options are used for the application of the safener: • seeds of the crop plants are dressed with the safener substance prior to sowing (the amount of safener is stated as a percentage, based on the seed weight) • crop plants are sprayed with the safener, with a defined application rate per hectare, prior to application of the test substances (typically 1 day before the test substances are applied) • the safener is applied together with the test substance in the form of a tank mix (the amount of safener is reported in g/ha or as a proportion relative to the herbicide). By comparing the effect of test substances on crop plants which have been treated with safener and without safener it is possible to assess the effect of the safener substance.

Maize - CECILIA = assay: as above; assay type: in vivo; details: 50 g a.i./ha, 28 days after application
Method: as §1

[4] = 25 g a.i./ha, 10 days after application
[5] = 50 g a.i./ha, 10 days after application
[6] = 10 days after application, 25 g a.i./ha
[7] = 10 days after application, 50 g a.i./ha
[8] = 10 days after application, 100 g a.i./ha
[9] = 28 days after application, 25 g a.i./ha
[10] = 28 days after application, 100 g a.i./ha
[11] = 28 days after application, 50 g a.i./ha
[12] = 10 days after application, 12.5 g a.i./ha

CCc1cc(C)cc(Br)c1CC(=O)NC(C)(CCOC)C(=O)OC (stereo not shown) [II-35]
logP [1]: logP 3.39

COCC1(C)NC(=O)C(c2c(C)cc(C)cc2Cl)=C1O (racemic) [I-a-12]
activity (effect in %, caterpillars killed) [2]: ≥ 80%

N.N.O=S(=O)(O)O [ammonium sulphate]
penetration through apple leaf cuticles (effect of additive, in words) [3]: significantly improves the penetration

CCc1cc(C)cc(C)c1C1=C(OC(=O)C(C)C)C(C)(COC)NC1=O (racemic) [I-b-4]
Spring wheat observed (%) (Spring wheat; 12.5 g a.i./ha, 10 days after application): 30%
Spring wheat observed (%) (Spring wheat; [4]): 50%
Spring wheat observed (%) (Spring wheat; [5]): 70%
Spring wheat observed (%) (Spring wheat; [6]): 10%
Spring wheat observed (%) (Spring wheat; [7]): 50%
Spring wheat observed (%) (Spring wheat; [8]): 75%
Spring wheat observed (%) (Spring wheat; [9]): 10%
Spring wheat observed (%) (Spring wheat; 28 days after application, 50 g a.i./ha, listed as Ex. I-b-4): 15% and 5%
Spring wheat observed (%) (Spring wheat; [10]): 30%
Spring barley observed (%) (Spring barley; [4]): 30%
Spring barley observed (%) (Spring barley; [5]): 40%
Spring barley observed (%) (Spring barley; [7]): 25%
Spring barley observed (%) (Spring barley; [8]): 65%

COCCC(C)(NC(=O)Cc1c(C)cc(C)cc1C)C(=O)OC (stereo not shown) [II-29]
logP [1]: logP 2.86

CCc1cc(Cl)cc(OC)c1C1=C(O)C(C)(COC)NC1=O (racemic) [I-a-10]
Spring wheat observed (%) (Spring wheat; 28 days after application, 12.5 g a.i./ha): 5%
Spring wheat observed (%) (Spring wheat; [9]): 15%
Spring wheat observed (%) (Spring wheat; [11]): 25%

CCc1cc(C)cc(C)c1C1=C(OC(=O)COC)C(C)(COC)NC1=O (racemic) [I-b-11]
Spring wheat observed (%) (Spring wheat; [6]): 10%
Spring wheat observed (%) (Spring wheat; [7]): 60%
Spring wheat observed (%) (Spring wheat; [9]): 10%
Spring wheat observed (%) (Spring wheat; [11]): 50%
Spring barley observed (%) (Spring barley; [12]): 10%
Spring barley observed (%) (Spring barley; [6]): 15%
Spring barley observed (%) (Spring barley; [7]): 50%
Spring barley observed (%) (Spring barley; [8]): 70%
Spring barley observed (%) (Spring barley; [11]): 25%
Spring barley observed (%) (Spring barley; [10]): 55%

CCc1cc(Cl)cc(OC)c1C1=C(OC(=O)C(C)C)C(C)(COC)NC1=O (racemic) [I-b-10]
Maize - Arsenal observed (%) (Maize - Arsenal; 12.5 g a.i./ha): 5%
Maize - Arsenal observed (%) (Maize - Arsenal; 25 g a.i./ha): 15%
Maize - Arsenal observed (%) (Maize - Arsenal; 50 g a.i./ha): 25%
Maize - CECILIA observed (%) (Maize - CECILIA): 15%

CCOc1cc(Cl)cc(CC)c1CC(=O)NC(C)(CCOC)C(=O)OC (stereo not shown) [II-34]
logP [1]: logP 3.64

COCC(C)(NC(=O)Cc1c(C2CC2)cc(C)cc1C1CC1)C(=O)OC (stereo not shown) [II-27]
logP [1]: logP 3.19

CCc1cc(C)cc(Br)c1C1=C(O)C(C)(COC)NC1=O (racemic) [I-a-6]
Spring wheat observed (%) (Spring wheat; [11]): 20%
Spring wheat observed (%) (Spring wheat; [10]): 30%

CCc1cc(C)cc(C2CC2)c1CC(=O)NC(C)(COC)C(=O)OC (racemic) [II-20]
logP [1]: oil logP 3.13

CCc1cc(C)cc(OC)c1C1=C(OC(=O)C(C)C)C(C)(COC)NC1=O (racemic) [I-b-9]
Spring wheat observed (%) (Spring wheat; [12]): 15%
Spring wheat observed (%) (Spring wheat; [6]): 60%
Spring wheat observed (%) (Spring wheat; [9]): 60%
Spring wheat observed (%) (Spring wheat; [11]): 85%
Spring barley observed (%) (Spring barley; [6]): 25%
Spring barley observed (%) (Spring barley; [7]): 75%
Spring barley observed (%) (Spring barley; [9]): 25%
Spring barley observed (%) (Spring barley; [11]): 70%

CCc1cc(Cl)cc(OC)c1CC(=O)NC(C)(CCOC)C(=O)OC (stereo not shown) [II-33]
logP [1]: logP 3.21

CCc1cc(C)cc(C)c1CC(=O)NC(C)(CCOC)C(=O)OC (stereo not shown) [II-28]
logP [1]: logP 3.19
